The source of these data is patent publication US10316050B2, “PT (IV) complexes containing 4,4′-disubstituted-2,2′-bipyridyl and their use in cancer therapy” (THE BOARD OF REGENTS OF THE NEVADA SYSTEM OF HIGHER …, priority 2014, dated 2019).

Series [1] is described as follows: Solubility in DMSO and common organic solvents. Format: physicochemical. The protocol:
Coordination of the axial ligands to the Pt center improved the solubility of the complexes in common organic solvents. DMSO solutions of the Pt(IV) complexes with concentrations of 10 mM or higher were obtainable, whereas the Pt(II) can only be made at the highest concentration of 5 mM.

Series [2] has as its system MCF-7 breast cancer cells. As to the kind of experiment: MTS cell viability assay, MCF-7. Format: cell-based, human. Particulars: for EC50: read-out: EC50 (effective concentration that resulted in 50% cell viability). The protocol:
(§1) Human breast (HCC38, MCF-7, MDA-MB-231, SK-BR-3, T-47D, and ZR-75-1), lung (A549 and H520), and prostate (DU145 and PC-3) cancer cell lines were obtained from American Culture Type Collection (ATCC). The HCC38, MCF-7, MDA-MB-231, SK-BR-3, T-47D, ZR-75-1, and A549 cells were grown in MEM supplemented with 10% FBS, 25 mM HEPES buffer (pH 7.4), penicillin (100 U/mL), and streptomycin (100 μg/mL). The H520, DU145, and PC-3 cell lines were grown in RPMI-1640 supplemented with 10% FBS, 25 mM HEPES buffer (pH 7.4), penicillin (100 U/mL), and streptomycin (100 μg/mL). All cell lines were maintained at 37° C. in a humidified, 5% CO2 atmosphere.
(§2) Cells were cultured at a density of 2-3.5×10^3 cells per well in flat bottomed 96-well plates in 100 μL of complete growth medium and incubated for 2 days to reach ˜50% confluence. The cells were then treated with solvent or the appropriate drugs (CDDP stock was dissolved in 0.15 M NaCl, carboplatin stock was dissolved in 5% glucose, synthesized Pt(IV) complexes were dissolved in DMSO) for 1 hour, washed three times with 100 μL PBS, and incubated in 100 μL of fresh medium. After 2 days, the medium was replaced with 120 μL of medium containing CellTiter 96® Aqueous One Solution Reagent (MTS reagent) (Promega, Madison, Wis.). The cells were incubated at 37° C. for 4 hours and the cell viability was determined by measuring the absorbance at 490 nm using a Tecan Infinite M1000 microplate reader. The 48 h treatment was done in a similar manner, except the cells were not washed after treatment and the MTS reagent was immediately added. Viability of treated groups was calculated as a percent of control and graphed with GraphPad Prism.
(§3) The anti-proliferative activities of Pt(IV) complexes were determined in two lung (A549 and H520), two prostate (DU145 and PC-3), and six breast (HCC38, MCF-7, MDA-MB-231, SK-BR-3, T-47D, and ZR-75-1) cancer cell lines. The cells were treated with increasing concentrations of cisplatin (CDDP), carboplatin, or the Pt(IV) complexes for 1 or 48 hours, and the viability was measured using an MTS colorimetric cell proliferation assay. Graphs of the results are shown for DU145 (FIG. 8A), PC-3 (FIG. 8B), SK-BR-3 (FIG. 8C), ZR-75-1 (FIG. 8D), A549 (FIG. 8E), and MCF-7 (FIG. 8F).
On the technique in general: Formazan colour is commonly taken as a measure of viable cells.

Series [3] concerns H520 lung cancer cells. As to the kind of experiment: MTS cell viability assay, H520. The class given is cell-based, human. The conditions noted are these: read-out: EC50 (effective concentration that resulted in 50% cell viability). The protocol: as §1, §2, §3
For series [4], the system named is HCC38 breast cancer cells. The experiment in a line: MTS cell viability assay, HCC38. Format: cell-based, human. The conditions noted are these: read-out: EC50 (effective concentration that resulted in 50% cell viability). The protocol:
as §1, §2, §3

Series [5] deals with PC-3 prostate cancer cells. The experiment in a line: MTS cell viability assay, PC-3. Format: cell-based, human. Particulars: read-out: EC50 (effective concentration that resulted in 50% cell viability). The protocol:
as §1, §2, §3
(§4) The anti-proliferative activities of certain Pt(II) complexes were determined in DU145, PC-3, and SK-BR-3 cells. The cells were treated with increasing concentrations of cisplatin (CDDP) or the Pt(II) complexes for 1 or 48 hours, and the viability was measured using an MTS colorimetric cell proliferation assay.

For series [6], the system named is ZR-75-1 breast cancer cells. As to the kind of experiment: MTS cell viability assay, ZR-75-1. Format: cell-based, human. Particulars: read-out: EC50 (effective concentration that resulted in 50% cell viability). The protocol:
as §1, §2, §3

The test system of series [7] is SK-BR-3 breast cancer cells. As to the kind of experiment: MTS cell viability assay, SK-BR-3. The class given is cell-based, human. The conditions noted are these: read-out: EC50 (effective concentration that resulted in 50% cell viability). The protocol:
as §1, §2, §3, §4

Series [8] concerns DU145 prostate cancer cells. The class given is cell-based, human. Particulars: for EC50: read-out: EC50 (effective concentration that resulted in 50% cell viability). The protocol:
as §1, §2, §3, §4

Series [9] deals with MDA-MB-231 breast cancer cells. The experiment in a line: MTS cell viability assay, MDA-MB-231. The class given is cell-based, human. Particulars: read-out: EC50 (effective concentration that resulted in 50% cell viability). The protocol: as §1, §2, §3
The subject of series [10] is T-47D breast cancer cells. As to the kind of experiment: MTS cell viability assay, T-47D. The class given is cell-based, human. The protocol: as §1, §2, §3
For series [11], the system named is A549 lung cancer cells. The experiment in a line: MTS cell viability assay, A549. The class given is cell-based, human. The conditions noted are these: for EC50: read-out: EC50 (effective concentration that resulted in 50% cell viability). The protocol: as §1, §2, §3
Series [12] is described as follows: Stability of stock solution in DMSO or ethanol. The class given is physicochemical. The conditions noted are these: stock solution made in DMSO or ethanol. The protocol: It should be noted that while the solubility of the Pt(IV) complexes in organic solvents were increased compared to their Pt(II) precursors, they were still poorly soluble in water. Thus, Pt(IV)-1C to Pt(IV)-3C were limited to a highest concentration of 100 μM. […] Testing of Pt(IV)4C therefore was limited to 25 μM.

Where [13] appears, read: ZR-75-1, 1 h treatment, Table 3.
Setting [14] is: SK-BR-3, 1 h treatment, Table 3.
Where [15] appears, read: MDA-MB-231, 1 h treatment, Table 3.
[16] abbreviates: 1 h treatment, Table 3, read-out: EC50 (effective concentration that resulted in 50% cell viability).
[17] abbreviates: 48 h, Table 5, read-out: EC50 (effective concentration that resulted in 50% cell viability).

Where two headings read alike, the source gives them in different places.

Regarding `CCCCCCCCOc1ccnc(-c2cc(OCCCCCCCC)ccn2)c1.[Cl][Pt][Cl]` [Pt(II)-8C], in series [1], the “solubility in DMSO and other common organic solvents (in words)” value was “poor solubility in DMSO”.
For the compound “[Pt(IV)Cl2(OAc)2(4,4′-dihexyloxy-2,2′-bipyridine)] [Pt(IV)-6C]”, the EC50 in series [2] (MCF-7, 1 h treatment, Table 3) amounted to 2400 ± 100 nM; in series [2] (MCF-7, 48 h, Table 5), 1600 ± 200 nM; in [3] (H520, 1 h treatment, Table 3) it was 2100 ± 200 nM; in series [3] (H520, 48 h, Table 5) it was 1000 ± 400 nM; in series [4] (HCC38, 1 h treatment, Table 3) it was 2300 ± 200 nM; in series [4] (HCC38, 48 h, Table 5) it was 1800 ± 500 nM. Also, the EC50 was determined as 2000 ± 300 nM in series [5] (PC-3, 1 h treatment, Table 3); 330 ± 40 nM in series [5] (PC-3, 48 h, Table 5); 1100 ± 400 nM in series [6] (setting [13]); 550 ± 40 nM in [6] (ZR-75-1, 48 h, Table 5); 360 ± 20 nM in series [7] (setting [14]); 210 ± 30 nM in [7] (SK-BR-3, 48 h, Table 5). The EC50 was found to be 1300 ± 200 nM in series [8] (DU145, 1 h treatment, Table 3); 500 ± 300 nM in series [8] (DU145, 48 h, Table 5); 1100 ± 200 nM in [9] (setting [15]); 310 ± 40 nM in series [9] (MDA-MB-231, 48 h, Table 5); 2100 ± 400 nM in series [10] (setting [16]); 240 ± 10 nM in series [10] (setting [17]). The EC50 in series [11] (A549, 1 h treatment, Table 3) stood at 2500 ± 200 nM; in series [11] (A549, 48 h, Table 5) it was 2200 ± 100 nM.
Turning to “[Pt(IV)Cl2(OAc)2(4,4′-dimethoxy-2,2′-bipyridine)] [Pt(IV)-1C]”, the EC50 in [2] (MCF-7, 1 h treatment, Table 3) was greater than 100000 nM; in [2] (MCF-7, 48 h, Table 5), greater than 100000 nM; in series [3] (H520, 1 h treatment, Table 3), greater than 100000 nM; in [3] (H520, 48 h, Table 5) it was greater than 100000 nM; in series [4] (HCC38, 1 h treatment, Table 3) it was greater than 100000 nM; in series [4] (HCC38, 48 h, Table 5), greater than 100000 nM. For the same compound, the EC50 is greater than 100000 nM in [5] (PC-3, 1 h treatment, Table 3); greater than 100000 nM in [5] (PC-3, 48 h, Table 5); greater than 100000 nM in series [6] (setting [13]); greater than 100000 nM in [6] (ZR-75-1, 48 h, Table 5); greater than 100000 nM in series [7] (setting [14]); 80000 ± 20000 nM in [7] (SK-BR-3, 48 h, Table 5). Besides, the EC50 in [8] (DU145, 1 h treatment, Table 3) was greater than 100000 nM; in [8] (DU145, 48 h, Table 5), 80000 ± 20000 nM; in [9] (setting [15]), greater than 100000 nM; in [9] (MDA-MB-231, 48 h, Table 5), greater than 100000 nM; in series [10] (setting [16]), greater than 100000 nM; in [10] (setting [17]), 32000 ± 500 nM. For the same compound, the EC50 was greater than 100000 nM in [11] (A549, 1 h treatment, Table 3) and greater than 100000 nM in series [11] (A549, 48 h, Table 5). Further, the “effect on cell viability (in words)” value is reported as “had no effect” in series [2] (MCF-7, 48 hour treatment (FIG. 8F)); “did not have any effects” in series [8] (DU145, 1 hour treatment (FIG. 8A, top), up to 1 mM carboplatin, 100 μM Pt(IV)-1C, 50 μM Pt(IV)-2C); “more effective than carboplatin” in series [8] (DU145, 48 hours treatment (FIG. 8A, bottom)); “had no effect” in series [11] (A549, 48 hour treatment (FIG. 8E)).
In the case of “[Pt(IV)Cl2(OAc)2(4,4′-dioctyloxy-2,2′-bipyridine)] [Pt(IV)-8C]”, the EC50 in [2] (MCF-7, 1 h treatment, Table 3) turned out to be 4000 ± 1000 nM; in series [2] (MCF-7, 48 h, Table 5) it was 1300 ± 300 nM; in [3] (H520, 1 h treatment, Table 3), 7000 ± 5000 nM; in series [3] (H520, 48 h, Table 5), 1200 ± 600 nM; in [4] (HCC38, 1 h treatment, Table 3), 3000 ± 600 nM; in [4] (HCC38, 48 h, Table 5) it was 1600 ± 300 nM. Moreover, the EC50 in series [5] (PC-3, 1 h treatment, Table 3) stood at 1200 ± 500 nM; in [5] (PC-3, 48 h, Table 5), 110 ± 20 nM; in series [6] (setting [13]), 3000 ± 1000 nM; in series [6] (ZR-75-1, 48 h, Table 5), 1300 ± 100 nM; in series [7] (setting [14]) it was 330 ± 50 nM; in [7] (SK-BR-3, 48 h, Table 5), 220 ± 30 nM. For the same compound, the EC50 in [8] (DU145, 1 h treatment, Table 3) was found to be 700 ± 300 nM; in [8] (DU145, 48 h, Table 5), 200 ± 100 nM; in series [9] (setting [15]) it was 2100 ± 200 nM; in series [9] (MDA-MB-231, 48 h, Table 5), 900 ± 300 nM; in [10] (setting [16]) it was 1500 ± 500 nM; in [10] (setting [17]) it was 250 nM. Further, the EC50 in series [11] (A549, 1 h treatment, Table 3) was 7000 ± 400 nM; in series [11] (A549, 48 h, Table 5) it was 3000 ± 500 nM. In series [12], the “stability of the structure in stock solution” value is “structure is stable”.
